Results on one molecule are retold here after patent publication US20120202831A1, “Pharmaceutical Formulation” (SANOFI, priority 2009, published 2012).

Like-named read-outs stand apart in the source and are kept apart here.

What all share (type): physicochemical
The nature of series [1]: chemical stability of formulations: impurity content by HPLC over time. The note with it: versus PS80 and PS80/ethanol formulations; especially 25° C./60% RH and 30° C./65% RH. Here is the method:
A study of chemical stability by measuring the impurity content by high performance liquid chromatography (HPLC) was carried out on the formulations making it possible to achieve the target solubility.

The nature of series [2]: physical stability of the perfusion solution (no visible precipitation). The note with it: perfusion solution from compound of formula (I) in PEG alone.
Series [3] is described as follows: solubility of the compound of formula (I) in media and formulations.

As to `CC(C)(C)NC(=O)Nc1nc2nc(Nc3ccc4nsnc4c3)ncc2cc1-c1c(Cl)cccc1Cl` [compound of formula (I)], the “chemical stability compared between formulations” value in series [1] is recorded as “degrades less rapidly”. Further, the “physical stability of the perfusion solution” value in series [2] is given as less than 24 h. In addition, the solubility is 9.5 mg/g in series [3] (medium: PEG 400); 3.8 mg/g in series [3] (medium: ethanol); 1 mg/g in series [3] (medium: propylene glycol); 1.2 mg/g in series [3] (medium: tert-butanol); less than 0.006 mg/g in series [3] (medium: water); no more than 7000 µg/mL in series [3] (organic solvent or mixture, dilution in PEG alone, read-out: solubility).
